Values of other authors in US20050202550A1, “Crystal structure of 3', 5'-cyclic nucleotide phosphodiesterase (PDE10A) and uses thereof” (Pfizer Inc, priority 2004, published 2005).

Biological target: T1, PDE10 (Mus musculus, UniProt Q8CA95)
T1 sequence (Q8CA95 1-779 isoform Q8CA95-2): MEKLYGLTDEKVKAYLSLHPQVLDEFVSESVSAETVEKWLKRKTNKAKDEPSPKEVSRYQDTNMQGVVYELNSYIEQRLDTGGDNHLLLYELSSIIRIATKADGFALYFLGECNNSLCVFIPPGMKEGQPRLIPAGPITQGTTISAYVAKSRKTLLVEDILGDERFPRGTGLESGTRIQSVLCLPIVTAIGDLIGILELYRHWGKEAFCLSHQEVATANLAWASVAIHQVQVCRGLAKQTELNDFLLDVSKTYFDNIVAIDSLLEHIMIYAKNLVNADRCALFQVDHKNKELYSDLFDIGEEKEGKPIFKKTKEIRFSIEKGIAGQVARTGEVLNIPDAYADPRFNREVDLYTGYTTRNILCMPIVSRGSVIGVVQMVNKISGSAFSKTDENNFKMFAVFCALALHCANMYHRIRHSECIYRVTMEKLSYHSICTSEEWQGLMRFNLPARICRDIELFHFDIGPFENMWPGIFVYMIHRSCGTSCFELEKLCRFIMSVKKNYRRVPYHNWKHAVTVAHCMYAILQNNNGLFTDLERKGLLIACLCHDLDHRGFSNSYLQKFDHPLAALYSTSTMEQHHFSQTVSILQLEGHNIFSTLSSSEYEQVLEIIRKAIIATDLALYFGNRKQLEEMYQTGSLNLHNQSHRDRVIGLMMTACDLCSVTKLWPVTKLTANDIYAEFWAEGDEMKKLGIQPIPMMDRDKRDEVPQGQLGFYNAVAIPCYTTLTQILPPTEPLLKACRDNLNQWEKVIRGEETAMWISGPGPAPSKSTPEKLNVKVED
Conditions: mouse PDE10A1

For `Nc1nc2c(ncn2[C@@H]2O[C@@H]3COP(=O)(O)O[C@H]3[C@H]2O)c(=O)[nH]1` [cGMP], the “Vmax for cGMP over cAMP” value (ratio of Vmax cGMP to cAMP) is listed as “approximately 5 fold” and the Km (substrate, read-out: Km (affinity of the PDE10 for substrate)) is listed as 3 µM.
